Where two headings read alike, the source gives them in different places.
Tests used:
[1] = molecular target: T1, arylhydrocarbon receptor (AhR) (Homo sapiens, UniProt P35869); details: cited from earlier work
T1 sequence (P35869 11-848): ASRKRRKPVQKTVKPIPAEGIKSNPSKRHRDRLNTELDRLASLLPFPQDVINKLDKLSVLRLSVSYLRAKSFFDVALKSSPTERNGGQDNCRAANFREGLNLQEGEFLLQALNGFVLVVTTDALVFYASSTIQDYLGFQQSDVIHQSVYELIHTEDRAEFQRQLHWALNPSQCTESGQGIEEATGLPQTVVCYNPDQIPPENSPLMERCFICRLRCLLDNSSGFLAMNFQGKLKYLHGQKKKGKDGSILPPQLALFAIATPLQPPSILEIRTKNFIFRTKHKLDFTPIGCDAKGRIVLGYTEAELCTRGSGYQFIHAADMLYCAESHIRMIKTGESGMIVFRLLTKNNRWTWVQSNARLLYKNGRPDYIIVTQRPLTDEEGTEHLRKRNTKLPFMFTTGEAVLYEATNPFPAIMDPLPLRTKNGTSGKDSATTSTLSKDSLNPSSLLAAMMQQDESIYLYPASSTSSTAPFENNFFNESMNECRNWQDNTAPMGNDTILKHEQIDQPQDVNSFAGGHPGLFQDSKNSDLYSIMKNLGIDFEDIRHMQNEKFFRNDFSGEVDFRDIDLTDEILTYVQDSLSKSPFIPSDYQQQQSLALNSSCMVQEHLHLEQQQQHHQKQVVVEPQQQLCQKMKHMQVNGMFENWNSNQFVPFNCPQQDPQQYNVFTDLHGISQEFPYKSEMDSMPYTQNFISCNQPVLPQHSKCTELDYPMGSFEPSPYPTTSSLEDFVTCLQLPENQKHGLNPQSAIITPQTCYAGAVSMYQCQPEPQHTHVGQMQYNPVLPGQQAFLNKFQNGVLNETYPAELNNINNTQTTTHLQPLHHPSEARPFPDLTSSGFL

[2] = test system: Skin Type IV female; assay: In vivo photoprotection proof of concept study: UVB-induced erythema after topical treatment; design: species or system human; details: one subject
From the text: The Malassezin 1% formulation used in this study contained the following ingredients: Water (aqua)—65.939%; Dimethyl isosorbide—20.000%; Olive Oil Glycereth-8 Esters—3.000%; Glycerin—2.991%; Coconut Alkanes—2.700%; Hydroxyethyl Acrylate/Sodium Acryloyldimethyl Taurate Copolymer—1.700%; Malassezin—1.000%; Pentylene Glycol—1.000%; Phenoxyethanol—0.640%; Coco-Caprylate/Caprate—0.300%; Caprylyl Glycol—0.200%; Chlorphenesin—0.160%; Sorbitan Isostearate—0.140%; Tocopherl—0.100%; Polysorbate 60—0.080%; and Disodium EDTA—0.050%.
A Skin Type IV […] was included in this Proof of Concept study.
A template of 6 squares was placed on the lower left back (1.5 cm×1.5 cm) of the test subject See FIG. 7.
Twenty-four hours after irradiation, the subject returned for MED assessment.
A second right lower square was treated twice daily from day 4 to day 7, and a third medial square for one application on day 7. The product vehicle was applied for 7 days twice daily on the left back. The subject returned to the research center for irradiation on day 7. Each test site was irradiated with 120 mJ of UVB exposure. The subject returned in 24 hours for assessment of phototoxicity/photoprotection.
The subject continued the experiment, receiving Malassezin 1% for a total of 14 days. […]

[3] = test system: primary human melanocytes; details: cited from earlier work
[4] = test system: staphylococci; details: cited from earlier work
[5] = test system: Candida albicans; details: cited from earlier work
[6] = cited from earlier work
[7] = test system: yeast model; details: cited from earlier work

O=C1Nc2ccccc2/C1=C1/Nc2ccccc2C1=O [Indirubin]
AhR activity [1]: agonist

O=Cc1c(Cc2c[nH]c3ccccc23)[nH]c2ccccc12 [Malassezin, 2-(1H-indol-3-ylmethyl)-1H-indole-3-carbaldehyde]
UV-protective properties, study conclusion [2]: UV-protective properties
AhR activity [1]: agonist
apoptosis induction [3]: induces apoptosis

O=C(c1c[nH]c2ccccc12)c1nccc2c1[nH]c1ccccc12 [Pityriacitrin]
UV-protective effect [4]: UV-protective effect
toxicity ([4]; ranges tested): no toxicity
UV-protective effect [5]: UV-protective effect
toxicity ([5]; ranges tested): no toxicity
UV protective effect overall ([6]; in vitro and in vivo tests in humans): very weak
sun protection factor (SPF) ([6]; pityriacitrin concentration 1.25% in cream): 1.4
sun protection factor (SPF) ([6]; pityriacitrin concentration 2.5% in cream): 1.5
sun protection factor (SPF) ([6]; pityriacitrin concentration 5% in cream): 1.7

O=C1OC(c2c[nH]c3ccccc23)=C(c2c[nH]c3ccccc23)C1=O [Pityrialactone]
UV protective properties [7]: confirmed

Source: patent US20190337927A1, “PHOTOPROTECTIVE COMPOSITIONS CONTAINING MALASSEZIA-DERIVED COMPOUNDS AND/OR CHEMICAL ANALOGS THEREOF” (priority 2018, published 2019)
